Measured values reported in patent US20080305066A1, “2-C-Substituted Propane-1,3-Dicarbonyl Compounds and Their Use in Neutralising Malodour” (GIVAUDAN SA, priority 2005, published 2008).

Key:
[1] = Neutralization of propyl mercaptane (headspace GC-MS); conditions: 0.25 ml 4 mM test compound + 0.25 ml 4 mM propyl mercaptane in dimethylsulfoxide/H2O 1:1, room temperature, 3 h, vs blank samples
Protocol: A 23×75 mm-headspace vial is charged with 0.25 ml of a 4 mM-solution of the test compound in dimethylsulfoxide/H2O 1:1. One blank sample containing 0.25 ml of dimethylsulfoxide/H2O 1:1 is prepared per 3 test samples. The vials are sealed with a 20 mm-aluminium seal containing a rubber septum. At 15 min-intervals (which is the time of 1 GC-analysis run) 0.25 ml of a 4 mM-solution of propyl mercaptane in dimethylsulfoxide/H2O 1:1 is added to each sample via cannula.
The samples are left at room temperature for 3 h, then submitted to headspace analysis using a headspace auto sampler connected to a GC-MS apparatus. Per sample 250 μl of headspace is injected. The peak areas (MS-ion current) of propyl mercaptane is compared to the averaged value from the blank samples to calculate the reduction of headspace concentration.

[2] = Neutralization of human sweat in aqueous environment, two chamber sample (headspace GC-MS); conditions: 5.0 μmol test compound on viscose filter, 16 h at 35° C., vs blank samples; for % Headspace reduction of malodours compounds: 3-mercapto-1-butanol: aqueous 3-mercapto-1-butanol (17 mM) with 3-methyl hexanoic acid (23 mM); for % Headspace reduction of malodours compounds: 3-methyl hexanoic acid: aqueous 3-methyl hexanoic acid (23 mM) with 3-mercapto-1-butanol (17 mM)
Protocol: A two chamber sample was prepared as depicted in FIG. 1. It is composed of the headspace vial (1′) described in example 26 as the outer containment and a standard HPLC-auto sampler vial (2′) as the inner containment. The test compound (5.0 μmol) is absorbed on viscose filter (3′) (applied as CH2Cl2-solution and let evaporate). An amount of 100 ul of an aqueous solution of 3-methyl hexanoic acid (23 mM) and 3-mercapto-1-butanol (17 mM), is placed on the bottom of the inner vial (2′). A screw cap containing the filter (3′) is screwed tightly on the HPLC-vial (2′), which is placed in the headspace vial (1′). The headspace vial is closed with an aluminium seal containing a rubber septum (5′). Blank samples containing an empty filter (3′) and the aqueous solution of 3-methyl hexanoic acid and 3-mercapto-1-butanol in the inner vial as described above are prepared (1 blank per 3 test samples). The samples are left standing for 16 h at 35° C., then submitted to headspace analysis as described in example 26.
The malodourant compounds (3-methyl hexanoic acid and 3-mercapto-1-butanol) diffuse through the filter into the outer volume (6′). Therefore a compound of formula 1 (neutralizing substance) applied on the filter (3′) will reduce the headspace concentration of the sweat malodourants in the outer volume compared to the blank samples.

[3] = Olfactory evaluation against sweat-malodour reconstitution (panel test); conditions: 50 μl of 1% solution in ethanol on malodour treated cotton swatch; LMS rating, expert panel of 20 assessors; relative to swatch without test compound
Protocol: An ethanolic solution of axilla-malodour reconstitution is applied on a 1×1 cm cotton swatch (100 ∥l, 0.1% wt/wt), then 50 μl of the test compound (1% solution in ethanol) are dosed to the malodour treated swatches. The malodour intensity is rated on a LMS (labelled magnitude scale) by an expert panel of 20 assessors. The results are then expressed in % reduction relative to malodour of a swatch without adding a test compound.

Structure (SMILES): CCCC(=O)C(C(=O)OCC)C(OCC)C(=O)OCC (stereo not shown)
- % Headspace Reduction [1]: 38%

Structure (SMILES): CC(=O)C(=CC(C)C)C(C)=O
- % Headspace Reduction [1]: 34%

Structure (SMILES): CCOC(=O)/C=C(\C(=O)OCC)C(=O)c1ccccc1 [drawing 50]
- % Headspace Reduction [1]: 100%

Structure (SMILES): CCOC(=O)C(OCC)C(C(C)=O)C(=O)OCC (stereo not shown) [drawing 59]
- % Headspace reduction of malodours compounds: 3-mercapto-1-butanol [2]: 100%
- % Headspace reduction of malodours compounds: 3-methyl hexanoic acid [2]: 0%

Structure (SMILES): CCCCCCCC=C(C(=O)OCC)C(=O)OCC [drawing 62]
- % Reduction of axilla malodour intensity in panel test [3]: 59%

Structure (SMILES): CCCCCCOC(=O)/C=C/C(=O)OCCCCCC [DHF, Dihexylfumarate, reference compound]
- % Headspace Reduction [1]: 5%
- % Headspace reduction of malodours compounds: 3-mercapto-1-butanol [2]: 10%
- % Headspace reduction of malodours compounds: 3-methyl hexanoic acid [2]: 0%
- % Reduction of axilla malodour intensity in panel test [3]: 68%

Structure (SMILES): CCOC(=O)C(O)C(C(=O)OCC)C(=O)c1ccccc1 (stereo not shown)
- % Headspace Reduction [1]: 20%

Structure (SMILES): CCOC(=O)C(OCC)C(C(C)=O)C(=O)c1ccccc1 (stereo not shown)
- % Headspace Reduction [1]: 22%

Structure (SMILES): CCOc1cc(C=C(C(C)=O)C(C)=O)ccc1O [Example 7]
- melting point: 126 to 128 °C

Structure (SMILES): CCOC(=O)/C=C(\C(C)=O)C(=O)c1ccccc1
- % Headspace Reduction [1]: 100%

Structure (SMILES): CC(=O)C(=CC(C)CCC=C(C)C)C(C)=O (stereo not shown)
- % Headspace Reduction [1]: 8%

Structure (SMILES): CCCCCCC/C=C(/C(C)=O)C(=O)OCC [drawing 56]
- % Headspace reduction of malodours compounds: 3-mercapto-1-butanol [2]: 35%
- % Headspace reduction of malodours compounds: 3-methyl hexanoic acid [2]: 10%

Structure (SMILES): CCCC(=O)/C(C(=O)OCC)=C(\O)C(=O)OCC
- % Headspace Reduction [1]: 15%

Structure (SMILES): CCOC(=O)C(OCC)C(C(C)=O)C(=O)OCC (stereo not shown) [drawing 65]
- % Reduction of axilla malodour intensity in panel test [3]: 67%

Structure (SMILES): CCOC(=O)/C=C(/C(C)=O)C(=O)OCC [drawing 57]
- % Headspace reduction of malodours compounds: 3-mercapto-1-butanol [2]: 98%
- % Headspace reduction of malodours compounds: 3-methyl hexanoic acid [2]: 10%

Structure (SMILES): CCOC(=O)/C=C(/C(C)=O)C(=O)OCC [drawing 64]
- % Reduction of axilla malodour intensity in panel test [3]: 76%

Structure (SMILES): CCOC(=O)C(O)C(C(C)=O)C(=O)OC(C)(C)C (stereo not shown)
- % Headspace Reduction [1]: 45%

Structure (SMILES): CCCCCCCC=C(C(=O)OCC)C(=O)OCC [drawing 55]
- % Headspace reduction of malodours compounds: 3-mercapto-1-butanol [2]: 22%
- % Headspace reduction of malodours compounds: 3-methyl hexanoic acid [2]: 0%

Structure (SMILES): CCCC(=O)/C(=C/C(=O)OCC)C(=O)OCC
- % Headspace Reduction [1]: 100%

Structure (SMILES): CCOC(=O)C=C(C(C)=O)C(C)=O [drawing 38]
- % Headspace Reduction [1]: 100%

Structure (SMILES): CCOC(=O)C(C)=C(C(=O)OCC)C(=O)OCC
- % Headspace Reduction [1]: 20%

Structure (SMILES): CCOC(=O)C=C(C(C)=O)C(C)=O [drawing 58]
- % Headspace reduction of malodours compounds: 3-mercapto-1-butanol [2]: 100%
- % Headspace reduction of malodours compounds: 3-methyl hexanoic acid [2]: 0%

Structure (SMILES): CCOC(=O)C(OCC)C(C(=O)OCC)C(=O)c1ccccc1 (stereo not shown)
- % Headspace Reduction [1]: 10%

Structure (SMILES): CCCCCCC/C=C(/C(C)=O)C(=O)OCC [drawing 63]
- % Reduction of axilla malodour intensity in panel test [3]: 82%

Structure (SMILES): CCOC(=O)C(OC)C(C(C)=O)C(=O)OCC (stereo not shown)
- % Headspace Reduction [1]: 54%

Structure (SMILES): CCOC(=O)/C=C(\C(=O)OCC)C(=O)c1ccccc1 [drawing 60]
- % Headspace reduction of malodours compounds: 3-mercapto-1-butanol [2]: 85%
- % Headspace reduction of malodours compounds: 3-methyl hexanoic acid [2]: 28%

Structure (SMILES): CCOC(=O)C(OCC)C(C(C)=O)C(C)=O (stereo not shown)
- % Headspace Reduction [1]: 82%

Structure (SMILES): CCOC(=O)C(O)C(C(C)=O)C(=O)OCC (stereo not shown)
- % Headspace Reduction [1]: 62%

Structure (SMILES): CCOC(=O)C(OCC)C(C(C)=O)C(=O)OCC (stereo not shown) [drawing 42]
- % Headspace Reduction [1]: 64%

Structure (SMILES): CCOc1cc(C=C(C(C)=O)C(C)=O)ccc1O [drawing 61]
- % Headspace reduction of malodours compounds: 3-mercapto-1-butanol [2]: 41%
- % Headspace reduction of malodours compounds: 3-methyl hexanoic acid [2]: 9%

Structure (SMILES): CCOC(=O)C(O)C(C(=O)OC)C(=O)C(C)(C)C (stereo not shown)
- % Headspace Reduction [1]: 15%

Structure (SMILES): CCOC(=O)/C=C(\C(=O)OC)C(=O)C(C)(C)C
- % Headspace Reduction [1]: 82%

Structure (SMILES): CCOC(=O)/C=C(/C(C)=O)C(=O)OCC [drawing 36]
- % Headspace Reduction [1]: 100%
